The source made the active and inactive calls.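 Rule for the calls: active = survival repeatably raised 25 points above the stressor-only control level of 35%, about 60% survival; inactive = the rest.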
System: differentiated CSM14.1, thapsigargin death rescue, ATPlite, 24 h
Assay: rescue of neuronal CSM14.1 from thapsigargin, SAR follow-up, cell-based, differentiated CSM14.1, ATP luminescence (AID 1347)
Conditions: at 25 µM; hits give high values

Compound `CCOc1cccc(C2Nc3ccccc3NC3=C2C(=O)CC(c2ccc(OC)cc2)C3)c1` (stereo unspecified) has a survival of 64%.
`COc1ccc(C2CC(=O)C3=C(C2)Nc2ccccc2NC3c2cccc(C(F)(F)F)c2)cc1OC` (stereo unspecified) gave a survival of 65%.
In the case of `CSc1ccc(C2Nc3ccccc3NC3=C2C(=O)CC(c2ccccc2)C3)cc1` (stereo unspecified), the survival was 65%.
Compound `COc1ccc(C2CC(=O)C3=C(C2)Nc2ccccc2NC3c2cc(C)ccc2C)cc1` (stereo unspecified) has a survival of 69%.
In the case of `O=C1CC(c2ccccc2)CC2=C1C(c1c(F)cccc1Cl)Nc1ccccc1N2` (stereo unspecified), the survival was 10% (inactive).
`COc1ccc(C2CC(=O)C3=C(C2)Nc2ccccc2NC3c2cccc(Br)c2)cc1OC` (stereo unspecified) was tested, and the survival was 63%.
`COc1ccc(C2CC(=O)C3=C(C2)Nc2ccccc2NC3c2cccc(Oc3ccccc3)c2)cc1OC` (stereo unspecified) was tested, and the survival was 66%.
`COc1ccc(C2CC(=O)C3=C(C2)Nc2ccccc2NC3c2ccccc2C(F)(F)F)cc1OC` (stereo unspecified) was tested, and the survival was 68%.
`CCCOc1ccc(C2Nc3ccccc3NC3=C2C(=O)CC(c2ccc(OC)c(OC)c2)C3)cc1` (stereo unspecified) gave a survival of 68%.
`CC1(C)CC(=O)C2=C(C1)Nc1ccccc1NC2c1ccc(-c2ccccc2)cc1` (stereo unspecified) showed a survival of 47%.
With `CCOc1cc(C2Nc3ccccc3NC3=C2C(=O)CC(c2ccc(OC)cc2)C3)cc(Cl)c1O` (stereo unspecified) the survival was 20% (inactive).
